Results reported in US20230210999A1, “TARGETED PROTEASE DEGRADATION (TED) PLATFORM” (EUBULUS BIOTHERAPEUTICS INC., priority 2020, published 2023).
Read-outs that look alike come from different tables or passages of the source.

Legend:
[1] = test system: MV4;11 cells; assay: Cell proliferation experiment (Alamar blue, 72 h), MV4;11; assay type: cell-based, human; details: Homo sapiens, MV4-11, 72 h, read-out: Inhibitory activity IC50 of tested compounds on MV4;11 cells
Summary of the method: (§1)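 Log-phase cells seeded, then exposed 72 h to test compound in a 5-fold dilution series, duplicate wells per concentration. Growth read by Alamar blue fluorescence; […].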

[2] = test system: Daudi cells; assay: Cell proliferation experiment, Daudi; assay type: cell-based, human; details: Homo sapiens, Daudi, 72 h, 72 h, read-out: Inhibitory activity IC50 of tested compounds on Daudi cells
Summary of the method: as §1

[3] = test system: NCIH82 cells; assay: Cell proliferation experiment, NCI-H82; assay type: cell-based, human; details: Homo sapiens, NCI-H82, 72 h, read-out: Inhibitory activity IC50 of tested compounds on NCIH82 cells
Summary of the method: as §1

[4] = test system: U-87MG cells; assay: Cell proliferation experiment, U-87MG; assay type: cell-based; details: Homo sapiens, 72 h, read-out: Inhibitory activity IC50 of tested compounds on U-87MG cells
Experimental: (§2) Reagents: RPMI-1640 medium, McCoy's 5A medium, IMDM medium, MEM medium, L-15 medium, fetal bovine serum. Penicillin-Streptomycin double antibody, trypsin, etc., 2-mercaptoethanol, NEAA, pyruvate, etc.
(§3) The cells were cultured in conventional ways, and the cells should be passed at least 2 generations before plating. Cells at the logarithmic growth phase were collected, prepared into single cell suspensions and counted. The concentration of cells was adjusted to the desired concentration, and cells were inoculated into a 96-well cell culture plate at 100 μl per well. 100 μL of complete medium of the test compound were added to each well, set up 2 duplicate wells for each concentration, and diluted with a 5-fold gradient, and continued to culture for 72 h. All cells were subjected to IC50 test for corresponding samples. The experimental results are shown in Test Example 4.
(§4) The fluorescence intensity of each well was detected using the Alarm blue method, and IC50 was calculated.
(§5) IC50 was calculated according to the following formula:
(§6) Y=Max+(Min−Max)/[1+(X/IC50)×Slope]
(§7) wherein Min, Max and Slope represent the minimum, maximum and slope respectively.

[5] = test system: HT-29 cells; assay: Cell proliferation experiment, HT-29; assay type: cell-based; details: Homo sapiens, read-out: Inhibitory activity IC50 of tested compounds on HT-29 cells
Experimental: as §2, §3, §4, §5, §6, §7

Structure (SMILES)	IC50 ([1]; MV4;11 cells, 72 h) [µM]	IC50 ([2]; Daudi cells) [µM]	IC50 ([3]; NCIH82 cells, 72 h) [µM]	IC50 ([4]; U-87MG cells) [µM]	IC50 ([5]; HT-29 cells, 72 h) [µM]	IC50 [1] [µM]	IC50 [2] [µM]	IC50 [3] [µM]	IC50 ([4]; U-87 MG) [µM]	IC50 ([5]; HT-29, 72 h) [µM]
CC[C@@H]1C(=O)N(C)c2cnc(Nc3ccc(C(=O)NC4CN(CCCOCCCNCCC#Cc5cccc6c5CN(C5CCC(=O)NC5=O)C6=O)C4)cc3OC)nc2N1C1CCCC1 (stereo partly shown) [Compound 931]	≤ 0.1	0.1 to 1	≤ 1	0.5 to 1	> 1	–	–	–	–	–
CC[C@@H]1C(=O)N(C)c2cnc(Nc3ccc(C(=O)NCCCOCCCN(C)CCC#Cc4cccc5c4CN(C4CCC(=O)NC4=O)C5=O)cc3OC)nc2N1C1CCCC1 (stereo partly shown) [Compound 913]	≤ 0.1	≤ 0.1	≤ 1	≤ 0.1	0.3 to 1	–	–	–	–	–
CC[C@@H]1C(=O)N(C)c2cnc(Nc3ccc(C(=O)NC4CCN(CCCOCCCN(C)CCC#Cc5cccc6c5CN(C5CCC(=O)NC5=O)C6=O)CC4)cc3OC)nc2N1C1CCCC1 (stereo partly shown) [Compound 914]	≤ 0.1	≤ 0.1	≤ 1	0.1 to 0.5	≤ 0.3	–	–	–	–	–
CC[C@@H]1C(=O)N(C)c2cnc(Nc3ccc(C(=O)NC4CCN(CCOCCOC[C@@H](N)C(=O)Nc5cccc6c5CC(C5CCC(=O)NC5=O)C6=O)CC4)cc3OC)nc2N1C1CCCC1 (stereo partly shown) [Compound 872]	0.1 to 1	> 1	≤ 1	> 1	> 1	–	–	–	–	–
CC[C@@H]1C(=O)N(C)c2cnc(Nc3ccc(C(=O)NCCCOCCOCCCNCCC#Cc4cccc5c4CN(C4CCC(=O)NC4=O)C5=O)cc3OC)nc2N1C1CCCC1 (stereo partly shown) [Compound 882]	≤ 0.1	0.1 to 1	≤ 1	≤ 0.1	0.3 to 1	–	–	–	–	–
CC[C@@H]1C(=O)N(C)c2cnc(Nc3ccc(C(=O)NC4CCN(CCOCC[C@@H](N)C(=O)Nc5cccc6c5CN(C5CCC(=O)NC5=O)C6=O)CC4)cc3OC)nc2N1C1CCCC1 (stereo partly shown) [Compound 863]	0.1 to 1	0.1 to 1	≤ 1	> 1	> 1	–	–	–	–	–
CC[C@@H]1C(=O)N(C)c2cnc(Nc3ccc(C(=O)NCCCNCCOCCCC#Cc4cccc5c4CN(C4CCC(=O)NC4=O)C5=O)cc3OC)nc2N1C1CCCC1 (stereo partly shown) [Compound 881]	0.1 to 1	> 1	> 1	> 1	> 1	–	–	–	–	–
CC[C@@H]1C(=O)N(C)c2cnc(Nc3ccc(C(=O)NC4CCN(CCOCCO)CC4)cc3OC)nc2N1C1CCCC1 [Compound 864]	≤ 0.1	≤ 0.1	≤ 1	≤ 0.1	≤ 0.3	–	–	–	–	–
CC[C@@H]1C(=O)N(C)c2cnc(Nc3ccc(C(=O)NC4CCN(CCOCCCN(C)CCC#Cc5cccc6c5CN(C5CCC(=O)NC5=O)C6=O)CC4)cc3OC)nc2N1C1CCCC1 (stereo partly shown) [Compound 916]	≤ 0.1	≤ 0.1	≤ 1	0.1 to 0.5	≤ 0.3	–	–	–	–	–
CC[C@@H]1C(=O)N(C)c2cnc(Nc3ccc(C(=O)NC4CCN(CCNCCOCC(=O)N[C@H](C(=O)N5C[C@H](O)C[C@H]5C(=O)NCc5ccc(-c6scnc6C)cc5)C(C)(C)C)CC4)cc3OC)nc2N1C1CCCC1 [Compound 852]	> 1	> 1	> 1	> 1	> 1	–	–	–	–	–
CC[C@@H]1C(=O)N(C)c2cnc(Nc3ccc(C(=O)NC4CCN(CCOCCNCC(=O)NC(C(=O)N5C[C@H](O)C[C@H]5C(=O)NCc5ccc(-c6scnc6C)cc5)C(C)(C)C)CC4)cc3OC)nc2N1C1CCCC1 (stereo partly shown) [Compound 859]	–	–	–	–	–	0.1 to 1	> 1	> 1	> 1	> 1
CC[C@@H]1C(=O)N(C)c2cnc(Nc3ccc(C(=O)NC4CCN(CCCOCCCNCCC#Cc5cccc6c5CN(C5CCC(=O)NC5=O)C6=O)CC4)cc3OC)nc2N1C1CCCC1 (stereo partly shown) [Compound 906]	≤ 0.1	0.1 to 1	≤ 1	0.1 to 0.5	0.3 to 1	–	–	–	–	–
CC[C@@H]1C(=O)N(C)c2cnc(Nc3ccc(C(=O)NC4CCN(CCCOCCNCCCC#Cc5cccc6c5CN(C5CCC(=O)NC5=O)C6=O)CC4)cc3OC)nc2N1C1CCCC1 (stereo partly shown) [Compound 918]	≤ 0.1	≤ 0.1	≤ 1	0.1 to 0.5	0.3 to 1	–	–	–	–	–
CC[C@@H]1C(=O)N(C)c2cnc(Nc3ccc(C(=O)NCCOCCNCC(=O)N[C@H](C(=O)N4C[C@H](O)C[C@H]4C(=O)NCc4ccc(-c5scnc5C)cc4)C(C)(C)C)cc3OC)nc2N1C1CCCC1 [Compound 851]	–	–	–	–	–	0.1 to 1	> 1	> 1	> 1	> 1
CC[C@@H]1C(=O)N(C)c2cnc(Nc3ccc(C(=O)NC4CCN(CCOCCOC[C@H](N)C(=O)Nc5cccc6c5CN(C5CCC(=O)NC5=O)C6=O)CC4)cc3OC)nc2N1C1CCCC1 (stereo partly shown) [Compound 871]	0.1 to 1	> 1	≤ 1	> 1	> 1	–	–	–	–	–
CC[C@@H]1C(=O)N(C)c2cnc(Nc3ccc(C(=O)NC4CCN(CCOCCNCC(O)C#Cc5cccc6c5CN(C5CCC(=O)NC5=O)C6=O)CC4)cc3OC)nc2N1C1CCCC1 (stereo partly shown) [Compound 869]	≤ 0.1	0.1 to 1	≤ 1	0.1 to 0.5	> 1	–	–	–	–	–
CC[C@@H]1C(=O)N(C)c2cnc(Nc3ccc(C(=O)NCCOCCOCCOCCNCC(=O)N[C@H](C(=O)N4C[C@H](O)C[C@H]4C(=O)NCc4ccc(-c5scnc5C)cc4)C(C)(C)C)cc3OC)nc2N1C1CCCC1 [Compound 854]	–	–	–	–	–	0.1 to 1	> 1	> 1	> 1	> 1
CC[C@@H]1C(=O)N(C)c2cnc(Nc3ccc(C(=O)NC4CCN(CCCN(C)CCCOCCCC#Cc5cccc6c5CN(C5CCC(=O)NC5=O)C6=O)CC4)cc3OC)nc2N1C1CCCC1 (stereo partly shown) [Compound 911]	≤ 0.1	≤ 0.1	≤ 1	≤ 0.1	0.3 to 1	–	–	–	–	–
CC[C@@H]1C(=O)N(C)c2cnc(Nc3ccc(C(=O)NC4CCN(CCO)CC4)cc3OC)nc2N1C1CCCC1 [Compound 865]	≤ 0.1	≤ 0.1	≤ 1	≤ 0.1	≤ 0.3	–	–	–	–	–
CC[C@@H]1C(=O)N(C)c2cnc(Nc3ccc(C(=O)NC4CCN(CCOC[C@@H](N)C(=O)Nc5cccc6c5CN(C5CCC(=O)NC5=O)C6=O)CC4)cc3OC)nc2N1C1CCCC1 (stereo partly shown) [Compound 870]	0.1 to 1	> 1	> 1	> 1	> 1	–	–	–	–	–
CC[C@@H]1C(=O)N(C)c2cnc(Nc3ccc(C(=O)NC4CCN(CCOCCNCC#Cc5cccc6c5CN(C5CCC(=O)NC5=O)C6=O)CC4)cc3OC)nc2N1C1CCCC1 (stereo partly shown) [Compound 873]	≤ 0.1	0.1 to 1	≤ 1	0.1 to 0.5	≤ 0.3	–	–	–	–	–
CC[C@@H]1C(=O)N(C)c2cnc(Nc3ccc(C(=O)NCCCNCCOCCOCCC#Cc4cccc5c4CN(C4CCC(=O)NC4=O)C5=O)cc3OC)nc2N1C1CCCC1 (stereo partly shown) [Compound 898]	≤ 0.1	> 1	> 1	0.1 to 0.5	> 1	–	–	–	–	–
CC[C@@H]1C(=O)N(C)c2cnc(Nc3ccc(C(=O)NC4CCN(CCOCCNCCC(=O)NC(C(=O)N5C[C@H](O)C[C@H]5C(=O)NCc5ccc(-c6scnc6C)cc5)C(C)(C)C)CC4)cc3OC)nc2N1C1CCCC1 (stereo partly shown) [Compound 858]	> 1	> 1	> 1	> 1	> 1	–	–	–	–	–
CC[C@@H]1C(=O)N(C)c2cnc(Nc3ccc(C(=O)NC4CCN(CCOCCN)CC4)cc3OC)nc2N1C1CCCC1 [Compound 866]	≤ 0.1	≤ 0.1	≤ 1	0.1 to 0.5	≤ 0.3	–	–	–	–	–
CC[C@@H]1C(=O)N(C)c2cnc(Nc3ccc(C(=O)NCCCNCCOCCC#Cc4cccc5c4CN(C4CCC(=O)NC4=O)C5=O)cc3OC)nc2N1C1CCCC1 (stereo partly shown) [Compound 885]	≤ 0.1	0.1 to 1	> 1	0.1 to 0.5	> 1	–	–	–	–	–
CC[C@@H]1C(=O)N(C)c2cnc(Nc3ccc(C(=O)NC4CCN(CCOCCNC5(C(=O)Nc6cccc7c6CN(C6CCC(=O)NC6=O)C7=O)CC5)CC4)cc3OC)nc2N1C1CCCC1 (stereo partly shown) [Compound 867]	≤ 0.1	≤ 0.1	≤ 1	0.5 to 1	0.3 to 1	–	–	–	–	–
